This note sets out measurements from US20020197233A1, “Methods of treating central nervous system ischemic or hemorrhagic injury using anti alpha4 integrin antagonists” (priority 1999, published 2002).

The subject of experiment [1] is spontaneously hypertensive rats (SHRs). The experiment is described as follows: Reversible middle cerebral artery occlusion (MCAO), infarct volume, spontaneously hypertensive rats. It is filed as in vivo, rat. Particulars: 300 ng/kg/min continuous subcutaneous infusion, vs vehicle treated controls, 24 h after induction of cerebral ischemia (1 h MCAO). Here is the method:
(§1) Male Sprague Dawley (SD) or spontaneously hypertensive rats (SHRS) were anesthetized using isoflurane and the right middle cerebral artery (MCAO) occluded by insertion of a 4-0 nylon monofilament up the internal carotid artery to the origin of the middle cerebral artery (MCA) (Zea Longa et al, 1989 Stroke 20:84). After 1 h the filament was retracted, the ischemic territory reperfused and the animal allowed to recover. After 24 h the rats were sacrificed, at which time brains were removed and analyzed histologically to quantify infarct volume.
(§2) Groups of animals were treated with either vehicle (PBS) or the bradykinin B2 receptor antagonist Hoe 140 (Hoechst) by continuous subcutaneous infusion via osmotic mini-pumps. Primed mini osmotic pumps (Alza Corp.,) were implanted into the subcutaneous space at the scruff of the neck immediately prior to induction of cerebral ischemia. The pumps were loaded to release 300 ng/kg/min Hoe 140 and delivered compound or vehicle at a rate of 8 μl/h.
(§3) In a separate experiment groups of animals were treated with either vehicle (sterile isotonic saline), TA2 (mouse anti rat VLA4: Seikagaku America Inc.) or an isotype control antibody (mouse anti-human LFA3: obtained from Biogen, Inc.). All treatments were administered 24 h before surgery intravenously (2.5 mg/kg or appropriate volume of vehicle)
(§4) Vehicle treated control rats that underwent MCAO sustained extensive lesions throughout cortical and subcortical regions of the brain. The ischemic hemisphere was markedly swollen and significant behavioral deficits were observed (eg. hemiparesis resulting in rotation and limb weakness). Spontaneously hypertensive rats sustained more extensive and reproducible brain infarcts than Sprague Dawley rats subjected to the same surgical procedure. Infarct volumes are expressed as mean values+/−s.e.m. Statistical analysis was performed using an unpaired Students' t-test (* denotes p<0.05, ** denotes p<0.01).

A further experiment concerns Sprague Dawley (SD) rats. Nature of the experiment: Reversible middle cerebral artery occlusion (MCAO), infarct volume, Sprague Dawley rats. It is filed as in vivo, rat. The settings on record: 300 ng/kg/min continuous subcutaneous infusion, vs vehicle treated controls, 24 h after induction of cerebral ischemia (1 h MCAO). Here is the method:
as §1, §2, §3, §4

Consider Hoe 140, for which, in experiment [1], the “reduction of cortical infarct volume” value is 43%, the “reduction of subcortical infarct volume” value was 17% and the “reduction of total infarct volume” value is listed as 37%. In the experiment on Sprague Dawley (SD) rats, the “reduction of cortical infarct volume” value amounted to 93%, the “reduction of subcortical infarct volume” value came out at 24% and the “reduction of total infarct volume” value is given as 57%.
